Assay results as given in patent publication US10906909B2, “Treatment of cognitive and mood symptoms in neurodegenerative and neuropsychiatric disorders with ALPHA5-containing GABAA receptor agonists” (UWM Research Foundation, Inc., priority 2016, dated 2021).

Assays:
rats = test: Morris water maze; assay type: in vivo, rat
Protocol: The potential of MP-III-022 to affect cognitive performance of rats was assessed in 2 well-validated behavioral models. First, Morris water maze experiments were performed in a 2 m diameter circular pool filled to a height of 30 cm with water at 22±1° C. The escape platform (15 cm×10 cm) was submerged 2 cm below the water surface. All experimental details were as described in Savic et al. (Int. J. Neuropsychopharmacol. 2009, 12, 1179-1193). On each of the five consecutive days rats were given one swimming block, consisting of four trials. For each trial the rat was placed in the water at one of four pseudo-randomly determined starting positions. Once the rat has found and mounted the escape platform it was permitted to remain on the platform for 15 s. […] During the acquisition phase, treatments were applied once daily before the swimming block. On the sixth day, rats were given a treatment-free probe test (60 s) without the platform. The probe test was started from the novel, most distant location. Dependent variables chosen for tracking during the acquisition trials were: escape latency (s), total distance traveled (m), path efficiency (the ratio of the shortest possible path length to actual path length), % of distance swam in the peripheral annulus and mean speed (m/s). The selected parameters in the probe test were the distance swam in the target zone […] and % of the distance swam in the peripheral annulus. We tested the effects of 1, 2.5 and 10 mg/kg MP-III-022 and 2 mg/kg diazepam as control drug. The doses of MP-III-022 were selected so that they elicit a mild, moderate and strong positive modulation of α5GABAARs, respectively, in accordance with the analysis of thorough pharmacokinetic and electrophysiological data presented in Stamenic et al. (Eur. J. Pharmacol. 2016, 791, 433-443). The data from the acquisition days in the Morris water maze were averaged for each rat (total data/total number of trials per day) and analyzed using two-way ANOVA with repeated measures (factors: Treatment and Days) with Days as the repeated measure. In the case of significant interaction, separate one-way ANOVAs were conducted to assess the influence of treatment within individual levels of factor Days. The data from the probe test were assessed using one-way ANOVA.

[1] = Wistar rats, Stamenic et al. 2016, cited from earlier work

## C#Cc1ccc2c(c1)C(c1ccccc1F)=N[C@H](C)c1c(C(=O)NC)ncn1-2 [MP-III-022]
rats; 1 mg/kg
  spatial learning and memory (water maze, probe test): significant improvement in spatial learning and memory processes
rats; 1 mg/kg vs 2 mg/kg diazepam and 10 mg/kg MP-III-022 groups
  escape latency, distance, distance in peripheral ring, path efficiency (acquisition): shorter escape latencies, shorter distances, swam less distance in the peripheral ring and had higher path efficiencies
rats; 1 mg/kg, Day II of acquisition
  path efficiency on Day II: higher path efficiencies compared to the control and all other treatment groups
rats; MP-III-022 10 mg/kg once daily before swimming block
  spatial learning during acquisition in the water maze: spatial learning incapacitation indistinguishable from that induced by diazepam 2 mg/kg
rats; high doses
  spatial learning and memory (water maze, probe test): mimic the cognitive disruption effect of diazepam
[1]; i.p. single dose
  terminal elimination half-life t1/2, brain: 70 min
  terminal elimination half-life t1/2, plasma: 35 min
[1]; single i.p. dose
  systemic and brain exposure: excellent systemic and brain exposure
